Experiments:
[1] = Oral bioavailability when dosed as a crystalline solid, dogs; assay type: in vivo; conditions: even when surfactant was included in the formulation
[2] = Solubility of Compound I Polymorph B in various liquid vehicles (suspension equilibrated at least 24 hours, filtered, HPLC); assay type: physicochemical
Procedure: Solubility determinations were carried out at room temperature unless otherwise specified. Solubility of N-[1S,2S]-3-(4-chlorophenyl)-2-(3-cyanophenyl)-1-methylpropyl]-2-methyl-2-{[5-trifluoromethyl]pyridine-2-yl}oxy}propanamide (Compound I) as anhydrous unsolvated Polymorph B (such as prepared in Preparatory Example 2) was determined by preparing a suspension of anhydrous unsovated Polymorph B of Compound I in the solvent system. After equilibration for at least 24 hours, the suspension was filtered and the supernatant was analyzed by HPLC. Chromatography was performed on either a Vydac C18 300 A 250×4.6 mm 5 um particle size with in-line Phenomenex Security Guard w/ C18 cartridge or on a Polaris C18-Ether columns or on a Polaris C8-Ether columns using 0.1% phosphoric acid in combination with methanol or acetonitrile depending on HPLC conditions. The compound was detected at […] and assayed using standard curves. The results are presented below in Table 1, calculated based on mg/g vehicle.

[3] = Aqueous solubility of Compound I; assay type: physicochemical
[4] = Oral bioavailability when dosed as a crystalline solid, monkeys; assay type: in vivo; conditions: even when surfactant was included in the formulation

In the case of `C[C@H](NC(=O)C(C)(C)Oc1ccc(C(F)(F)F)cn1)[C@@H](Cc1ccc(Cl)cc1)c1cccc(C#N)c1` [Compound I, N-[1S,2S]-3-[(4-chlorophenyl)-2-(3-cyanophenyl)-1-methylpropyl]-2-methyl-2-{[(5-trifluoromethyl)pyridine-2-yl]oxy}propanamide], the oral bioavailability [1] was “very poorly orally bioavailable”, the “Solubility of Compound I, mg/g of vehicle” value (shortened to “Solubility of Compound I”) ([2]; CAPRYOL PGMC, anhydrous unsolvated Polymorph B, room temperature) was 396 mg/g of vehicle and the “Solubility of Compound I” value ([2]; CREMOPHOR-EL, Polymorph B, room temperature) was 131 mg/g of vehicle. For the same molecule, the “Solubility of Compound I” value ([2]; Corn oil-SPAN 80-CREMOPHOR EL (35:35:30), w/w/w, Polymorph B, room temperature) was 69 mg/g of vehicle, the “Solubility of Compound I” value ([2]; Corn oil-SPAN 80-TWEEN 80 (30:30:40), w/w/w, Polymorph B, room temperature) was 78 mg/g of vehicle and the “Solubility of Compound I” value ([2]; Corn oil/Oleic acid/TWEEN 80 (5:2:3), w/w/w, Polymorph B, room temperature) was 57 mg/g of vehicle. The “Solubility of Compound I” value ([2]; Glycerol, Polymorph B, room temperature) was 0.4 mg/g of vehicle, the “Solubility of Compound I” value ([2]; IMWITOR 742-MIGLYOL 812-TWEEN 80, (15:65:20) w/w/w, Polymorph B, room temperature) was 140 mg/g of vehicle and the “Solubility of Compound I” value ([2]; IMWITOR 742-MIGLYOL 812-TWEEN 80, (30:50:20) w/w/w, Polymorph B, room temperature) was 171 mg/g of vehicle. The “Solubility of Compound I” value ([2]; IMWITOR 742-MIGLYOL 812-TWEEN 80, (40:40:20) w/w/w, Polymorph B, room temperature) was 187 mg/g of vehicle, the “Solubility of Compound I” value ([2]; IMWITOR 742-MIGLYOL 812-TWEEN 80,(45:45:10) w/w/w, Polymorph B, room temperature) was “≧191 mg/g of vehicle” and the “Solubility of Compound I” value ([2]; IMWITOR 742-Oleic Acid-TWEEN 80-MIGLYOL 812 (2:4:2:2), w/w/w/w, Polymorph B, room temperature) was 140 mg/g of vehicle. For the same molecule, the “Solubility of Compound I” value ([2]; IMWITOR 742-TWEEN 80 (50:50) w/w, Polymorph B, room temperature) was 184 mg/g of vehicle, the “Solubility of Compound I” value ([2]; IMWITOR 742-TWEEN 80 (60:40), w/w, Polymorph B, room temperature) was 209 mg/g of vehicle and the “Solubility of Compound I” value ([2]; IMWITOR 742-TWEEN 80, (70:30), w/w, Polymorph B, room temperature) was 222 mg/g of vehicle. The “Solubility of Compound I” value ([2]; IMWITOR 742-TWEEN 80-Oleic Acid (4:2:4), w/w/w, Polymorph B, room temperature) was 159 mg/g of vehicle, the “Solubility of Compound I” value ([2]; IMWITOR 742-TWEEN 80-Oleic Acid (5:3:2), w/w/w, Polymorph B, room temperature) was 178 mg/g of vehicle and the “Solubility of Compound I” value ([2]; IMWITOR 742, at 30 C., anhydrous unsolvated Polymorph B) was 267 (at 30 C.) mg/g of vehicle. The “Solubility of Compound I” value ([2]; LABRAFIL M1944CS, Polymorph B, room temperature) was 84 mg/g of vehicle, the “Solubility of Compound I” value ([2]; LABRASOL, Polymorph B, room temperature) was 202 mg/g of vehicle and the “Solubility of Compound I” value ([2]; MIGLYOL 812-Corn oil-SPAN 80-TWEEN 80 (30:20:25:25), w/w/w, Polymorph B, room temperature) was 97 mg/g of vehicle. For the same molecule, the “Solubility of Compound I” value ([2]; MIGLYOL 812-IMWITOR 742, 1:1 v/v, Polymorph B, room temperature) was “≧204 mg/g of vehicle”, the “Solubility of Compound I” value ([2]; MIGLYOL 812-IMWITOR 742, 4:1 v/v, Polymorph B, room temperature) was 173 mg/g of vehicle and the “Solubility of Compound I” value ([2]; MIGLYOL 812-LABRASOL/TWEEN80/Oleic acid (40:25:25:10), w/w/w/w, Polymorph B, room temperature) was 158 mg/g of vehicle. The “Solubility of Compound I” value ([2]; MIGLYOL 812-PECEOL, 1:1 v/v, Polymorph B, room temperature) was 118 mg/g of vehicle, the “Solubility of Compound I” value ([2]; MIGLYOL 812-TWEEN 80, 1:1 w/w, Polymorph B, room temperature) was 113 mg/g of vehicle and the “Solubility of Compound I” value ([2]; MIGLYOL 812/Oleic acid/CREMOPHOR EL (5:2:3), w/w/w/w, Polymorph B, room temperature) was 129 mg/g of vehicle. For the same molecule, the “Solubility of Compound I” value ([2]; MIGLYOL 812/Oleic acid/TWEEN 80 (5:2:3), w/w/w/w, Polymorph B, room temperature) was 120 mg/g of vehicle, the “Solubility of Compound I” value ([2]; MIGLYOL 812, Polymorph B, room temperature) was 94 mg/g of vehicle and the “Solubility of Compound I” value ([2]; Oleic Acid, Polymorph B, room temperature) was 20 mg/g of vehicle. For the same molecule, the “Solubility of Compound I” value ([2]; Olive oil, Polymorph B, room temperature) was 18 mg/g of vehicle, the “Solubility of Compound I” value ([2]; PEG400-TWEEN80 (1:1), w/w, Polymorph B, room temperature) was 138 mg/g of vehicle and the “Solubility of Compound I” value ([2]; PEG400, Polymorph B, room temperature) was 120 mg/g of vehicle. The “Solubility of Compound I” value ([2]; PG, Polymorph B, room temperature) was 28 mg/g of vehicle, the “Solubility of Compound I” value ([2]; SPAN 80, Polymorph B, room temperature) was 45 mg/g of vehicle and the “Solubility of Compound I” value ([2]; Soybean Oil, Polymorph B, room temperature) was 21 mg/g of vehicle. The “Solubility of Compound I” value ([2]; Soybean oil-SPAN 80-TWEEN 80 (50:25:25), w/w/w, Polymorph B, room temperature) was 59 mg/g of vehicle, the “Solubility of Compound I” value ([2]; TWEEN 80-LABRASOL-Oleic Acid (25:25:50), w/w/w, Polymorph B, room temperature) was 120 mg/g of vehicle and the “Solubility of Compound I” value ([2]; TWEEN 80, Polymorph B, room temperature) was 104 mg/g of vehicle. The solubility ([3]; aqueous medium (not further specified)) was under 0.4 µg/mL, the solubility ([3]; aqueous medium, typically) was under 0.4 µg/mL and the oral bioavailability [4] was “very poorly orally bioavailable”.

Source: patent publication US20070298099A1, “Liquid and Semi-Solid Pharmaceutical Formulations for Oral Administration of a Substituted Amide” (priority 2004, published 2007)
